Patent publication US20110065714A1, “SUBSTITUTED QUINAZOLINES” (Shire LLC, priority 2008, published 2011)

How the values were obtained:
[1] = molecular target: human phosphodiesterase III (PDE III); settings: cited from earlier work
[2] = test system: erythroid or myelomonocytic differentiation; settings: stimulated by erythropoietin or granulocyte-macrophage colony-stimulating factor; cited from earlier work
[3] = test system: human megakaryocytopoiesis; settings: cited from earlier work
[4] = human, in vivo; cited from earlier work
[5] = pharmacokinetics of anagrelide and its metabolite in patients; assay type: in vivo, human; settings: typical exposures, greater than anagrelide
[6] = test system: human phosphodiesterase III (PDE III); assay: PDE III inhibition; assay type: biochemical; settings: more potent than anagrelide

exposure in vivo relative to parent drug [5]	potency as PDE III inhibitor relative to anagrelide [6]	Compound	IC50 [1]	effect on erythroid or myelomonocytic differentiation [2]	IC50 ([3]; in vitro, TPO-induced, read-out: estimated IC50 for inhibition of TPO-induced megakaryocytopoiesis)	first pass effect [4]	typical half-life [4]	potency in inhibition of megakaryocytopoiesis relative to parent drug ([3]; compared with anagrelide)
		Cc1[nH]c(=O)c(C#N)cc1-c1ccncc1 [milrinone]	170 to 350 nM					
		O=C1CN2Cc3c(ccc(Cl)c3Cl)N=C2N1 [Anagrelide, 6,7-dichloro-1,5-dihydroimidazo[2,1-b]-quinazolin-2(3H)-one]	~29 nM	does not affect	~26 nM	> 50%	1.5 h	
2-3 fold	over 40 fold	O=C1NC2=Nc3ccc(Cl)c(Cl)c3CN2C1O (stereo not shown) [3-hydroxyanagrelide]					2.5 h	no more potent than the parent drug
